Test results taken from patent publication US10894076B2 (PEGBIO CO., LTD., priority 2015, dated 2021).

Assays:
[1] = test system: nonalcoholic steatohepatitis (NASH) model mice; assay: Combination of PB-119 and PB-722 in nonalcoholic steatohepatitis (NASH) mouse model (Example 21); format: in vivo, C57/BL6J mice; conditions: 10 mg/kg orally once a day, 21 days
From the text: 30 C57/BL6J mice (purchased from Lingchang Biotechnology Co. Ltd., Shanghai, China) were used in this experiment. Twenty four of them were intraperitoneally injected with streptozotocin (STZ) one week after they were born and fed with high-fat diet (purchased from Research Diets, Inc) for five weeks to successfully create a nonalcoholic steatohepatitis (NASH) model. The other 6 were used as normal control and fed with normal diet. The administration started at the sixth week. […] The positive control group was orally administered once a day and the other groups were administered subcutaneously once every two days for 21 consecutive days. During the administration period, body weight was measured every day and the food intake was measured every two days. After the last day of administration, the animals were fasted overnight, and then weighed and euthanized. Serum and liver tissues were taken and the liver weights were measured. Serum glucose and insulin levels were detected. Liver tissue was fixed with formaldehyde solution, and tissue sections were made and stained with HE, oil red and Sirius red. The sections were examined and scored to determine the NASH index.

DIO mice [2] = assay: Long-term administration of PB-716 series conjugates, weight loss in DIO mice (Example 16); format: in vivo, C57BL/6 mice
Experimental: […] The continuous administration experiments was conducted for a total of 14 days. During the experimental period, the body weight and food intake of the mice were measured every day. Random blood sugar level was measured before the start of the experiment and after the complement of the experiment.

DIO mice [3] = assay: Long-term administration of PB-718, PB-119 and PB-708+PB-120, weight loss in DIO mice (Example 17); format: in vivo, C57BL/6 mice; conditions: 14 days
Experimental: The Victoza group was dosed once a day and the remaining groups were dosed once every 2 days. The continuous administration experiment was conducted for a total of 14 days. During the experimental period, the body weight and food intake of the mice were measured every day. Random blood sugar level was measured before the start of the experiment and after the complement of the experiment.

DIO mice [4] = assay: Long-term administration of PB-119 with PB-721 or PB-722, weight loss and lipids in DIO mice (Example 18); format: in vivo, C57BL/6 mice; conditions: for decrease of liver triglyceride content compared with model control group / decrease of serum total cholesterol content / serum triglyceride level: Day21; for decrease of cumulative food intake compared with model control group / body weight decrease compared with that before the administration: 21 days
Experimental: Each group was administered subcutaneously, once every two days, and the experiment lasted for 21 days with 11 administrations. During the experimental period, the body weight and food intake of the mice were measured every day. The blood sugar level was measured at Day1 and Day21, and the serum triglyceride serum, total cholesterol, liver triglyceride and other indexes were measured at Day21.

DIO mice [5] = assay: Combination of PB-119 and PB-722, weight loss in DIO mice, 21 days (Example 20); format: in vivo, C57BL/6 mice; conditions: 10 nmol/kg once every two days
Experimental: Male C57BL/6 mice (from the same source as described above) were fed with high-fat diet (45% kcal) for 22 weeks. […] 36 DIO mice were divided into 6 groups based on their body weight and random blood sugar level, with 6 mice per group. […] Except that administration was carried out twice a day in group 6, administration was carried out once every two days in other groups. The experiment was conducted for a total of 21 days for a continuous administration. The body weight and food intake of the mice were measured on the day of the administration, and random blood sugar level and fasting blood sugar level were measured on the second day after the last administration.
After 21 days of administration, an oral glucose tolerance experiment was performed. Mice were orally given 2.5 g/kg glucose solution, and random glucose level was measured at 0 min, 15 min, 30 min, 60 min and 120 min after sugar feeding.

Compound: CCCc1nc2c(C)cc(-c3nc4ccccc4n3C)cc2n1Cc1ccc(-c2ccccc2C(=O)O)cc1 [telmisartan]
- blood sugar level [1]: no effect

Compound: CCCCCCCCCCCCCCCC(=O)N[C@@H](CCC(=O)NCCCC[C@H](NC(=O)[C@H](C)NC(=O)[C@H](C)NC(=O)[C@H](CCC(N)=O)NC(=O)CNC(=O)[C@H](CCC(=O)O)NC(=O)[C@H](CC(C)C)NC(=O)[C@H](Cc1ccc(O)cc1)NC(=O)[C@H](CO)NC(=O)[C@H](CO)NC(=O)[C@@H](NC(=O)[C@H](CC(=O)O)NC(=O)[C@H](CO)NC(=O)[C@@H](NC(=O)[C@H](Cc1ccccc1)NC(=O)[C@@H](NC(=O)CNC(=O)[C@H](CCC(=O)O)NC(=O)[C@H](C)NC(=O)[C@@H](N)Cc1cnc[nH]1)[C@@H](C)O)[C@@H](C)O)C(C)C)C(=O)N[C@@H](CCC(=O)O)C(=O)N[C@@H](Cc1ccccc1)C(=O)N[C@H](C(=O)N[C@@H](C)C(=O)N[C@@H](Cc1c[nH]c2ccccc12)C(=O)N[C@@H](CC(C)C)C(=O)N[C@H](C(=O)N[C@@H](CCCNC(=N)N)C(=O)NCC(=O)N[C@@H](CCCNC(=N)N)C(=O)NCC(=O)O)C(C)C)[C@@H](C)CC)C(=O)O [Victoza, reference compound]
- body weight decrease compared with that before the administration (DIO mice [2]; 200 μg/kg once a day, 14 days): 15.83%
- decrease of cumulative food intake relative to model control group (DIO mice [2]; 200 μg/kg once a day, end of 14-day continuous administration): 50.82%
- body weight compared with control group by 96 hours after first administration (DIO mice [2]; Victoza 200 μg/kg, single administration): no significant difference
- body weight decrease compared with that before the administration (DIO mice [3]; 200 μg/kg once a day): 15.92%

Compound: mPEG-23 KD-ppMAL--PB-740 (HSQGTFTSDYSKYLDSRRAQDFVQWLMNTC; mPEG-23KD-ppMAL conjugate) [PB-721]
- decrease of liver triglyceride content compared with model control group (DIO mice [4]; 60 nmol/kg alone): 73.29%
- decrease of serum total cholesterol content (DIO mice [4]; 60 nmol/kg alone): 60.86%
- serum triglyceride level (DIO mice [4]; 60 nmol/kg alone): did not significantly improve
- decrease of cumulative food intake compared with model control group (DIO mice [4]; 60 nmol/kg alone, s.c. once every two days): 2.36%
- body weight decrease compared with that before the administration (DIO mice [4]; alone, 60 nmol/L as printed, s.c. once every two days): 21.65%

Compound: mPEG-23 KD-ppMAL-PB-105 [PB-119]
- body weight decrease compared with that before the administration (DIO mice [3]; 210 μg/kg once every 2 days): 13.33%
- decrease of cumulative food intake compared with control group (DIO mice [3]; 210 μg/kg once every 2 days): 39.95%
- decrease of random blood sugar level (DIO mice [3]; 210 μg/kg once every 2 days): 27.27%
- decrease of liver triglyceride content compared with model control group (DIO mice [4]; 10 nmol/kg alone): 12.67%
- decrease of serum total cholesterol content (DIO mice [4]; 10 nmol/kg alone): 39.35%
- serum triglyceride level (DIO mice [4]; 10 nmol/kg alone): did not significantly improve
- decrease of cumulative food intake compared with model control group (DIO mice [4]; 10 nmol/kg alone, s.c. once every two days): 25.14%
- body weight decrease compared with that before the administration (DIO mice [4]; 10 nmol/kg s.c. once every two days): 14.37%
- body weight decrease compared with that before the administration (DIO mice [5]): 16.6%
- decrease in cumulative food intake compared with control group (DIO mice [5]): 14.4%
- fasting blood sugar level decrease compared with that before administration (DIO mice [5]): 17.9%
